Values after ≈ are worked out from the molar mass of the structure shown.

The first assay has as its system PANC-1 (pancreatic cancer) cells. Kind of assay: MTT cell growth inhibition, solid tumor cells. Type of assay: cell-based, human. The conditions noted are these: Homo sapiens; PANC-1, 72 h, MTT; read-out: IC50. The gist of the method: (§1)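 Human tumor cells seeded at 6000 per well grow 24 h in serum-supplemented (10% FBS) high-glucose DMEM. A 72 h incubation with graded compound doses at 37 °C follows, and MTT reports viable cell number.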
In the case of `C=C(C)COc1c(OC)cc2c3c1Oc1cc4c(cc1OC)CCN(C)[C@H]4Cc1ccc(cc1)Oc1cc(ccc1OC)C[C@@H]3N(C)CC2` [BS-FC-221], the half-inhibitory concentration (IC50) is 1.42 µg/mL (≈ 2.14 µM).

Staying with this assay, now noted: Homo sapiens; PANC-1, 72 h, MTT; read-out: IC90.
As for `C=C(C)COc1c(OC)cc2c3c1Oc1cc4c(cc1OC)CCN(C)[C@H]4Cc1ccc(cc1)Oc1cc(ccc1OC)C[C@@H]3N(C)CC2` [BS-FC-221], the IC90 is 4.65 µg/mL (≈ 7.02 µM).

The subject of another assay is PC-3 (prostate cancer) cells. Kind of assay: MTT cell growth inhibition, solid tumor cells. It counts as cell-based, human. The conditions noted are these: Homo sapiens; PC-3, 72 h, MTT; read-out: IC50. In outline:
as §1
In the case of `C=C(C)COc1c(OC)cc2c3c1Oc1cc4c(cc1OC)CCN(C)[C@H]4Cc1ccc(cc1)Oc1cc(ccc1OC)C[C@@H]3N(C)CC2` [BS-FC-221], the IC50 is 3 µg/mL (≈ 4.53 µM).

Still in this assay, the particulars now being: Homo sapiens; PC-3, 72 h, MTT; read-out: IC90.
`C=C(C)COc1c(OC)cc2c3c1Oc1cc4c(cc1OC)CCN(C)[C@H]4Cc1ccc(cc1)Oc1cc(ccc1OC)C[C@@H]3N(C)CC2` [BS-FC-221]: the IC90 was 5.46 µg/mL (≈ 8.24 µM).

The subject of a further assay is SK-OV-3 (ovarian cancer) cells. Kind of assay: MTT cell growth inhibition, solid tumor cells. Type of assay: cell-based, human. The following applies: Homo sapiens; SK-OV-3, 72 h, MTT; read-out: IC50. The gist of the method: as §1
For `C=C(C)COc1c(OC)cc2c3c1Oc1cc4c(cc1OC)CCN(C)[C@H]4Cc1ccc(cc1)Oc1cc(ccc1OC)C[C@@H]3N(C)CC2` [BS-FC-221], the IC50 was 2.38 µg/mL (≈ 3.59 µM).

Staying with this assay, now noted: Homo sapiens; SK-OV-3, 72 h, MTT; read-out: IC90.
As to `C=C(C)COc1c(OC)cc2c3c1Oc1cc4c(cc1OC)CCN(C)[C@H]4Cc1ccc(cc1)Oc1cc(ccc1OC)C[C@@H]3N(C)CC2` [BS-FC-221], the IC90 amounted to 3.94 µg/mL (≈ 5.94 µM).

The next assay relates to CaEs-17 (esophageal cancer) cells. The assay can be described thus: MTT cell growth inhibition, solid tumor cells. Type of assay: cell-based, human. The conditions noted are these: Homo sapiens, CaEs17; CaEs-17, 72 h, MTT; read-out: IC50. The gist of the method:
as §1
For the compound `C=C(C)COc1c(OC)cc2c3c1Oc1cc4c(cc1OC)CCN(C)[C@H]4Cc1ccc(cc1)Oc1cc(ccc1OC)C[C@@H]3N(C)CC2` [BS-FC-221], the IC50 worked out at 1.53 µg/mL (≈ 2.31 µM).

Staying with this assay, now noted: Homo sapiens, CaEs17; CaEs-17, 72 h, MTT; read-out: IC90.
Regarding `C=C(C)COc1c(OC)cc2c3c1Oc1cc4c(cc1OC)CCN(C)[C@H]4Cc1ccc(cc1)Oc1cc(ccc1OC)C[C@@H]3N(C)CC2` [BS-FC-221], the IC90 amounted to 5.6 µg/mL (≈ 8.45 µM).

Another assay deals with CNE (nasopharyngeal carcinoma) cells. The assay can be described thus: MTT cell growth inhibition, solid tumor cells. Type of assay: cell-based, human. The following applies: Homo sapiens; CNE, 72 h, MTT; read-out: IC50. The gist of the method:
as §1
For `C=C(C)COc1c(OC)cc2c3c1Oc1cc4c(cc1OC)CCN(C)[C@H]4Cc1ccc(cc1)Oc1cc(ccc1OC)C[C@@H]3N(C)CC2` [BS-FC-221], the IC50 is 1.8 µg/mL (≈ 2.72 µM).

The assay is the same for the next values; noted with them: Homo sapiens; CNE, 72 h, MTT; read-out: IC90.
Take `C=C(C)COc1c(OC)cc2c3c1Oc1cc4c(cc1OC)CCN(C)[C@H]4Cc1ccc(cc1)Oc1cc(ccc1OC)C[C@@H]3N(C)CC2` [BS-FC-221]: the IC90 is 3.8 µg/mL (≈ 5.73 µM).

The next assay concerns RPMI 8226 (multiple myeloma) cells. The assay can be described thus: MTT cell growth inhibition, multiple myeloma cells. Type of assay: cell-based, human. The conditions noted are these: Homo sapiens; RPMI 8226, 72 h, MTT; read-out: IC50. In outline:
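RPMI 8226 myeloma cells, 6000 per well in RPMI-1640 with 10% FBS, were dosed with fangchinoline derivatives at several concentrations the day after seeding. Incubation ran 72 h at 37° C in 5% CO2, then viable cells were measured by MTT.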
On to `C=C(C)COc1c(OC)cc2c3c1Oc1cc4c(cc1OC)CCN(C)[C@H]4Cc1ccc(cc1)Oc1cc(ccc1OC)C[C@@H]3N(C)CC2` [BS-FC-221], for which the IC50 came to 0.11 µg/mL (≈ 0.166 µM).

Staying with this assay, now noted: Homo sapiens; RPMI 8226, 72 h, MTT; read-out: IC90.
`C=C(C)COc1c(OC)cc2c3c1Oc1cc4c(cc1OC)CCN(C)[C@H]4Cc1ccc(cc1)Oc1cc(ccc1OC)C[C@@H]3N(C)CC2` [BS-FC-221]: the 90% effect concentration (IC90) was 0.46 µg/mL (≈ 0.694 µM).

Another assay concerns Kasumi-1 (acute myeloid leukemia M2 type) cells. The assay can be described thus: MTT cell growth inhibition, leukemia cells. Type of assay: cell-based, human. The conditions noted are these: Homo sapiens; Kasumi-1, 72 h, MTT; read-out: IC50. In outline: (§2)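 MTT read-out of viable cells after 72 h compound exposure at 37° C., 5% CO2; 6000 cells/well in RPMI-1640 + 10% FBS, dosed one day after seeding over a range of concentrations.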
Take `C=C(C)COc1c(OC)cc2c3c1Oc1cc4c(cc1OC)CCN(C)[C@H]4Cc1ccc(cc1)Oc1cc(ccc1OC)C[C@@H]3N(C)CC2` [BS-FC-221]: the IC50 was determined as 1 µg/mL (≈ 1.51 µM).

Staying with this assay, now noted: Homo sapiens; Kasumi-1, 72 h, MTT; read-out: IC90.
As for `C=C(C)COc1c(OC)cc2c3c1Oc1cc4c(cc1OC)CCN(C)[C@H]4Cc1ccc(cc1)Oc1cc(ccc1OC)C[C@@H]3N(C)CC2` [BS-FC-221], the IC90 was determined as 3.39 µg/mL (≈ 5.11 µM).

A further assay has as its system H9 (acute lymphoblastic leukemia) cells. The assay can be described thus: MTT cell growth inhibition, leukemia cells. It counts as cell-based, human. The following applies: Homo sapiens; H9, 72 h, MTT; read-out: IC50. In outline:
as §2
Turning to `C=C(C)COc1c(OC)cc2c3c1Oc1cc4c(cc1OC)CCN(C)[C@H]4Cc1ccc(cc1)Oc1cc(ccc1OC)C[C@@H]3N(C)CC2` [BS-FC-221], the IC50 stood at 1.96 µg/mL (≈ 2.96 µM).

Still in this assay, the particulars now being: Homo sapiens; H9, 72 h, MTT; read-out: IC90.
For `C=C(C)COc1c(OC)cc2c3c1Oc1cc4c(cc1OC)CCN(C)[C@H]4Cc1ccc(cc1)Oc1cc(ccc1OC)C[C@@H]3N(C)CC2` [BS-FC-221], the IC90 turned out to be 4 µg/mL (≈ 6.03 µM).

In another assay the test system is Jurkat (acute lymphoblastic leukemia) cells. Kind of assay: MTT cell growth inhibition, leukemia cells. It counts as cell-based, human. The conditions noted are these: Homo sapiens; Jurkat, 72 h, MTT; read-out: IC50. The gist of the method: as §2
`C=C(C)COc1c(OC)cc2c3c1Oc1cc4c(cc1OC)CCN(C)[C@H]4Cc1ccc(cc1)Oc1cc(ccc1OC)C[C@@H]3N(C)CC2` [BS-FC-221]: the IC50 was determined as 0.52 µg/mL (≈ 0.785 µM).

The same assay, now with this note: Homo sapiens; Jurkat, 72 h, MTT; read-out: IC90.
With `C=C(C)COc1c(OC)cc2c3c1Oc1cc4c(cc1OC)CCN(C)[C@H]4Cc1ccc(cc1)Oc1cc(ccc1OC)C[C@@H]3N(C)CC2` [BS-FC-221], the concentration for an effect of 90% (IC90) came to 1.89 µg/mL (≈ 2.85 µM).

One may read the IC50 as the point on the concentration scale where inhibition reaches its midpoint. A word on the IC90: it is the concentration needed for an effect of 90%.

The values above are taken from patent US9328122B2, “7-substituted Hanfangichin B derivative, and preparation method and use thereof” (HANGZHOU BENSHENG PHARMACEUTICAL CO., LTD., priority 2012, dated 2016).
